{"source": "patent US6664241B2", "about": "“Water-soluble amide derivatives of polyene macrolides and preparation and uses thereof” (Micrologix Biotech Inc., priority 2000, dated 2003)", "assay": "Two week range-finding toxicity study in mice", "type": "in vivo, CD-1 mice", "conditions": "both sexes, CD-1, mouse, in vivo, iv, intravenous once daily on days 1 to 5 and 8 to 12", "description": "A variety of the compounds synthesized as described in Section 5, supra, were tested in various in vivo assays, as described below. The results of the various assays are provided in TABLE 3, presented at the end of this section. In all of the in vivo assays described, the test compounds, in the form of the aspartate salts, were formulated in an aqueous vehicle (5% mannitol in sterile water; OSMITROL, Baxter Healthcare, Deerfield, Ill.), followed by appropriate dilutions. The formulations were prepared fresh before dosing.\nAmB and AME were also tested for comparison. For AmB, the commercially available FUNGIZONE (Bristol-Meyers Squibb Co.) was used. Reported values are based upon the weight of the AmB active ingredient, not on the basis of the weight of the FUNGIZONE powder. AME was formulated in OSMITROL as described for the test compounds.\nVarious polyene macrolide amide derivatives of the invention were evaluated to characterize their potential toxicity when administered subchronically by intravenous injection.\nCD-1® mice (Charles River Laboratories, Portage, Mich.) were acclimated to laboratory conditions for at least 5 days before the start of dosing. During the acclimation period, the general condition of the mice was evaluated, and those considered healthy were used. The mice were randomly assigned to treatment groups using a stratified body weight regimen. Each treatment group consisted of 3 male and 3 female mice. The mice were housed in a room with a controlled environment and provided rodent chow and water ad libitum.\nOn the first day of dosing, the mice were approximately 7 to 9 weeks old and weighed 22 to 30 g. Doses were administered by intravenous injection once daily on study days 1 to 5 and 8 to 12. Dosages were selected based upon data from efficacy and toxicology studies, and ranged from 1.25 to 30 mg/kg/day. Clinical observations were recorded 0.5 hr after dosing on days 1, 3, 5, 8, 10, 12 and 15, and on any day a change was observed. Body weights were recorded prior to dosing and on study days 8 and 12, and on study day 15 at the completion of the in-life phase of the study.\nAnimals that were found in a moribund/deteriorating clinical state were euthanized (animal designated killed in extremis) by inhalation of CO2. The day of death for any animal found dead or killed in extremis was recorded. Any animal that died prematurely was removed from the study without further processing.\nOne day after completion of dosing (study day 16), all surviving mice were euthanized by inhalation of CO2. Their kidneys were preserved for histopathologic examination. The maximum no-observed-adverse-effect level (NOAEL) was determined on the basis of clinical and histopathologic findings. The values for AmB and AME are provided for comparison.", "note": "Like-named read-outs stand apart in the source and are kept apart here."}
{"smiles": "C[C@@H]1[C@H](O)[C@@H](C)/C=C/C=C/C=C/C=C/C=C/C=C/C=C/[C@H](O[C@@H]2O[C@H](C)[C@@H](O)[C@H](N)[C@@H]2O)C[C@@H]2O[C@](O)(C[C@@H](O)C[C@@H](O)[C@H](O)CC[C@@H](O)C[C@@H](O)CC(=O)O[C@H]1C)C[C@H](O)[C@H]2C(=O)O", "note": "[AMB, amphotericin B, reference compound]", "values": [{"measurement": "NOAEL at 2 week", "setting": "clinical findings, read-out: NOAEL 2 week mice clinical", "value": 0.5, "unit": "mg/kg"}, {"measurement": "NOAEL at 2 week", "setting": "histopathologic (kidney) findings, read-out: NOAEL 2 week mice histological", "value": 0.85, "unit": "mg/kg"}]}
